Experimental data reported in patent US8779004B2, “Stable emulsion formulations” (Amgen, Inc., priority 2006, dated 2014).
Values after ≈ are worked out from the molar mass of the structure shown.

Tests used:
[1] = Solubility of calcimimetics in oil phases (RP-HPLC); type: physicochemical; settings: long-chain oil phases; for solubility at 18 h: oil or lipid, thermodynamic from solid
Protocol: The solubility measurements of the compounds were prepared by the addition of 1 g of drug substance to two milliliters of oil into a Wheaton 5 mL vial. The headspace was sparged with nitrogen, and enclosed with a West 4405/50 gray Teflon coated stopper and manually sealed by an aluminum overseal. The preparations were repeated again with the oils containing either purified egg or soy lecithin. All labeled vials were shaken at room temperature for eighteen hours on a platform shaker. After eighteen hours, the samples were diluted in mobile phase, and analyzed by the RP-HPLC method. Table 2 summarizes solubility results (expressed in mg/mL) of cinacalcet in various oil phases.

[2] = Loss in drug strength due to adsorption to PVC tubing; type: physicochemical
Protocol: A solution of compound A was prepared in acetate mannitol buffer at pH 4. At this pH, the compound forms a clear solution of concentration 0.2 mg/mL. An equivalent emulsion was prepared at the same concentration with 5% soybean oil, 2% lecithin, 2% glycerin and 20 mM TRIS buffer at pH 9. PVC tubing was selected as an example of commonly used intravenous infusion set. 15 cm sections of this tube were filled with either the solution or emulsion formulation and clamped on both ends. These filled tubes were held at the ambient temperature for 1 hour. The formulations inside were collected and analyzed for drug content using reversed phase HPLC. […] Panel A: Compound A in acetate/mannitol solution, pre-exposure. Panel B: compound A in acetate/mannitol solution, after 1 hour of exposure to the PVC tubing. Panel C: compound A formulated in the emulsion of the invention, pre-exposure. Panel D: compound A formulated in the emulsion of the invention, pre-exposure, after 1 hour of exposure to the PVC tubing.

[3] = Zeta potential titration of emulsions (droplet charge vs pH); type: physicochemical; settings: SBO 10%, Lecithin 2% at pH 7; 5 mg/mL (formulation #1) versus 1 mg/mL (formulation #2)
Protocol: Panel A, titration results of 1% EYP/10% SBO in 1 mM dibasic phosphate. Panel B, titration results of cinacalcet/1% EYP/10% SBO in 1 mM dibasic phosphate. Other components of the emulsions include 10% soybean oil, 1% egg lecithin, 2.25% glycerin and water. Panel C, titration results for Compound A. Emulsion composition: SBO 10%, Lecithin 2% at pH 7. Concentration of Compound A was 5 mg/mL for formulation #1 and 1 mg/mL for formulation #2.
The zeta potential measurements were made on a Malvern Zetasizer 4 laser-scattering particle electrophoretic analyzer that measures the electrophoretic mobility and zeta potential distribution. Samples were prepared for the zeta potential titration by diluting the emulsion approximately 2500 fold in 1 mM dibasic phosphate pH 9 and titrating the solution with 100 mM phosphoric acid in 0.5 pH unit increments. […] Theoretically, the emulsions are stabilized by this charge, which prevents the droplets from coalescing. […] In contrast, the cinacalcet emulsions achieve charge neutrality in the range of pH 7-7.5.

[4] = Long-term storage stability of emulsions (assay, pH, particle size); type: physicochemical; settings: Compound A emulsions; over 14 months at any of the storage conditions tested
Protocol: Calcimimetics emulsions for long-term studies were prepared at 5 mg/mL drug concentration, 5% SBO, 2% egg lecithin, 2% glycerin, 20 mM TRIS buffer at pH 9. The emulsions were packed in glass vials at 20 mL each and stored inverted in stability chambers. At each time-point, 3 vials from each chamber were pulled and analyzed for the calcimimetic concentration, pH and particle size. […] The values for pH dropped over time, with greater magnitude of drop seen at higher temperature.

rabbit ear vein = assay: Acute local venous toxicity / irritation in the rabbit ear vein (REV); type: in vivo; parameters: Erythema / Edema: scale not given here
Text: This Example illustrates the protective effect of the formulations of the invention as measured by irritation in the rabbit ear vein (REV). A typical protocol for evaluation of the local tolerance for formulations was as follows.
Dosing of animals. The rabbits used were male New Zealand rabbits weighing approximately 2.5 to 4 kg. The rabbits were acclimatized for a period of 10 days following receipt before the start of the study. The rabbits were randomized into groups based on the number of formulations to be studied. Typically 3 rabbits were used per group.
For each group of rabbits, the formulation containing the drug to be tested was dosed in the right marginal ear vein, with the corresponding placebo being dosed at the same time in the left marginal ear vein. The placebos were prepared such that they matched the formulation composition, and the technique of dosing for the drug formulations and the placebo formulations were kept the same. Typical dosing volumes ranged from 1 mL/kg to 5 mL/kg. The formulations were either dosed as (a) bolus injection wherein the entire dosing volume was administered within 5 minutes; (b) 30 minute infusion; or (c) a 2 hour infusion. The formulations were administered through appropriately sized syringes and catheters. The injection sites were marked with indelible ink for identification at each observation period. The rabbits were dosed based upon the Day 1 body weight.
Observation of animals. Each animal was observed cage side at least twice daily for mortality/morbundity. Each animal received a detailed clinical observation once prior to randomization, once prior to dosage administration and once daily thereafter.
Any abnormalities were recorded as they were observed. Observations for local irritation were scored according to the following scale
At each interval the area of irritation (if present) was also measured. The actual length and width in mm was recorded.
On day 3 the animals were euthanized and the tissues from the Pinna of the left and right ear, and any gross lesions (if present) of the ear or ear vein were collected. Histopathology was performed on the collected tissues. After fixation, the pinna was tripped into a total of 4 sections of 1 cm each; one of which included the deposition site (location of the end of the catheter in the ear) and one from approximately 1-, 2-, and 3-cm downstream from the deposition site. Each section included skin, cartilage, vein and other soft tissue. These tissues were then embedded in paraffin, sectioned and stained with hematoxylin and eosin, and examined via light microscopy.

cytochrome P450 2D6 = cytochrome P450 2D6 (Homo sapiens, UniProt P10635); settings: stated as known; cited from earlier work
[5] = emulsion with TRIS buffer 20 mM, pH 9, 2-hour infusion, 2 mg/kg (conc. 5 mg/mL), 0 h
[6] = emulsion with TRIS buffer 20 mM, pH 9, 2-hour infusion, 2 mg/kg (conc. 5 mg/mL), 48 h
[7] = emulsion with TRIS buffer 20 mM, pH 9, 2-hour infusion, 6 mg/kg (conc. 5 mg/mL), 0 h
[8] = emulsion with TRIS buffer 20 mM, pH 9, 2-hour infusion, 6 mg/kg (conc. 5 mg/mL), 48 h
[9] = solution in acetate mannitol buffer, pH 4, 2 hour infusion, 1 mg/kg (conc. 0.1 mg/mL), 0 h
[10] = solution in acetate mannitol buffer, pH 4, 2 hour infusion, 1 mg/kg (conc. 0.1 mg/mL), 48 h

Chain of cytochrome P450 2D6 (P10635 whole entry, the tested form may be a part): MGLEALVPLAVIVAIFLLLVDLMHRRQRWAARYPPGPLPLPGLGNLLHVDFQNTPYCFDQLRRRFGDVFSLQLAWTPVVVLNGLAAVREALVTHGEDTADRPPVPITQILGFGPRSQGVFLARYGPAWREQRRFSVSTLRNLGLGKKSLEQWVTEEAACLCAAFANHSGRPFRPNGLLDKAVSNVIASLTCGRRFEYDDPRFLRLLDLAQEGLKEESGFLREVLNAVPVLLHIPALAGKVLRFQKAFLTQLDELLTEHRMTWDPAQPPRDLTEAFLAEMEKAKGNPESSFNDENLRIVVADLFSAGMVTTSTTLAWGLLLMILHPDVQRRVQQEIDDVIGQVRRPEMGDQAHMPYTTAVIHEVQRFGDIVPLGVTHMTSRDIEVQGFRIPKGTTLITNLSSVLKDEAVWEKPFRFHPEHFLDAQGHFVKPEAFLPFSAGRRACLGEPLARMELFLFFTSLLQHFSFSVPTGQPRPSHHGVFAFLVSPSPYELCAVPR

## C[C@@H](NCc1ccc(Cl)c(-c2ccc(OC(F)(F)F)cc2)c1)c1cccc2ccccc12 [Compound H, (1R)—N-((6-chloro-4′-((trifluoromethyl)oxy)-3-biphenyl)methyl)-1-(1-naphthalenyl)ethanolamine]
[1]
  Solubility: >50 mg/mL

## COc1ccc(CN[C@H](C)c2ccccc2)cc1-c1ccc(C(F)(F)F)cc1 [Compound A, (1R)—N-((6-(methyloxy)-4′-(trifluoromethyl)-1,1′-biphenyl-3-yl)methyl)-1-phenylethanamine]
[1]
  solubility at 18 h: > 300 mg/mL
[2]; 0.2 mg/mL emulsion (5% soybean oil, 2% lecithin, 2% glycerin, 20 mM TRIS, pH 9), 1 hour
  difference in concentration of drug before or after exposure to tubing: no significant difference
[2]; 0.2 mg/mL solution in acetate mannitol buffer at pH 4, ambient temperature
  drug concentration after 1 hour holding in the tubing: about 50 % of initial concentration
[3]
  pH at which emulsion reaches neutral charge: reaches neutral charge at a higher pH
[4]
  change in particle size: No change
Rabbit ear vein; dosed as a solution
  local venous toxicity: evidence of local venous toxicity
Rabbit ear vein; emulsion containing Compound A
  effect on the vasculature: protective effect on the vasculature
Rabbit ear vein; [5]
  Edema: 0.0 ± 0.0
  Erythema: 0.0 ± 0.0
Rabbit ear vein; [6]
  Edema: 0.0 ± 0.0
  Erythema: 0.0 ± 0.0
Rabbit ear vein; [7]
  Edema: 0.0 ± 0.0
  Erythema: 0.0 ± 0.0
Rabbit ear vein; [8]
  Edema: 0.0 ± 0.0
  Erythema: 0.0 ± 0.0
Rabbit ear vein; emulsion with TRIS buffer 20 mM, pH 9, 2-hour infusion, 2 and 6 mg/kg, compared to the solution
  Histopathology: severity and incidence of edema, hemorrhage and subacute inflammation: much lower in all thee animals as compared
Rabbit ear vein; [9]
  Edema: 0.0 ± 0.0
  Erythema: 0.0 ± 0.0
Rabbit ear vein; [10]
  Edema: 0.0 ± 0.0
  Erythema: 1.3 ± 2.3
Rabbit ear vein; solution in acetate mannitol buffer, pH 4, 2 hour infusion, 1 mg/kg, compared to placebo
  Histopathology: severity and incidence of edema, hemorrhage and subacute inflammation: higher in the ears treated with Compound A

## COc1ccc(CN[C@H](C)c2cccc(Cl)c2)cc1-c1ccc(C(F)(F)F)cc1 [Compound E, (1R)-1-(3-chlorophenyl)-N-((6-(methyloxy)-4′-(trifluoromethyl)-1,1′-biphenyl-3-yl)methyl)ethanamine]
[1]
  solubility at 18 h: > 300 mg/mL

## CCn1cc(-c2cccc(C(F)(F)F)c2)c2cc(CN[C@H](C)c3ccccc3)ccc21 [Compound F, (1R)—N-((1-ethyl-3-(3-(trifluoromethyl)phenyl)-1H-indol-5-yl)methyl)-1-phenylethanamine]
[1]
  solubility at 18 h: > 300 mg/mL

## COc1ccc(CN[C@H](C)c2cccc(F)c2)cc1-c1ccc(C(F)(F)F)cc1 [Compound D, (1R)-1-(3-fluorophenyl)-N-((6-(methyloxy)-4′-(trifluoromethyl)-1,1′-biphenyl-3-yl)methyl)ethanamine]
[1]
  solubility at 18 h: > 300 mg/mL

## COc1ccc([C@@H](C)N[C@H](C)c2ccccc2)cc1-c1ccc(C(F)(F)F)cc1 [Compound G]
[1]
  Solubility: >50 mg/mL

## COc1ccc(CN[C@H](C)c2cccc3ccccc23)cc1-c1ccc(OC(F)(F)F)cc1 [Compound B, (1R)—N-((6-(methyloxy)-4′-((trifluoromethyl)oxy)-1,1′-biphenyl-3-yl)methyl)-1-(1-naphthalenyl)ethanamine]
[1]
  solubility at 18 h: 50 mg/mL (≈ 111 mM)

## COc1ccc(CN[C@H](C)c2ccccc2)cc1-c1ccc(OC(F)(F)F)cc1 [Compound C, (1R)—N-((6-(methyloxy)-4′-((trifluoromethyl)oxy)-1,1′-biphenyl-3-yl)methyl)-1-phenylethanamine]
[1]
  solubility at 18 h: > 300 mg/mL

## C[C@@H](NCCCc1cccc(C(F)(F)F)c1)c1cccc2ccccc12 [Sensipar]
Cytochrome P450 2D6
  metabolism: metabolized by cytochrome P450 2D6
